Results as given in patent publication USRE50799E1, “JAK1 selective inhibitors and uses thereof” (Hangzhou HighlightII Pharmaceutical Co., Ltd, priority 2016, dated 2026).
pIC50: −log10 of the molar value.

Key:
[1] = test system: TPO induced STAT3 phosphorylation; test: Human whole blood p-STAT3 assay, TPO stimulation; format: cell-based; conditions: for pIC50: 0.25 h, TPO 50 ng/ml 15 min, pSTAT3 ELISA, read-out: TPO (range of IC50, induced STAT3 phosphorylation)
Description: (§1) Example B2: Human Whole Blood p-STAT3 Assay
(§2) 1. Whole blood samples from human donors
3. Thrombopoietin (TPO; R&D systems; Cat #288-TP)
(§3) 5. ELISA kit for pSTAT3 (Invitrogen; Cat # KH00481)
(§4) 1. 150 μl heparinized blood sample/tube.
(§5) 2. Compounds at various concentrations is added to the blood, incubate for 10 min at RT (10 doses, 2 replicates for each compound).
(§6) 3. Add IL-6 (final concentration: 100 ng/ml) or TPO (final conc: 50 ng/ml) to the blood for 15 min.
(§7) 4. After the stimulation, add 0.6 mL RBC lysis buffer (Qiagen 79217) and mix and rock for 1-2 minutes at room temperature before centrifugation to remove lyzed RBCs. This step may be repeated once if RBCs are not lyzed completely. Harvest the WBCs.
(§8) 5. Add 200 μl cell lysis buffer, ice 30 min.
(§9) 7. Transfer the supernatant to a new tube as cell lysate.
(§10) 8. Run ELISA procedure according to the product instruction of ELIA kit.

Jak1 = molecular target: T1, Jak1 (Homo sapiens, UniProt P23458); test: Jak1 biochemical assay (33P-ATP filter-binding, Reaction Biology Corp); conditions: for pIC50: biochemical kinase assay, 33P-ATP, filter-binding, read-out: Jak1 (range of IC50); for Jak1 inhibition, statement in words: biochemical assays, Jak1 versus Jak2
T1 construct: Reaction Biology Corp (performed the assay)
T1 sequence (P23458 whole entry): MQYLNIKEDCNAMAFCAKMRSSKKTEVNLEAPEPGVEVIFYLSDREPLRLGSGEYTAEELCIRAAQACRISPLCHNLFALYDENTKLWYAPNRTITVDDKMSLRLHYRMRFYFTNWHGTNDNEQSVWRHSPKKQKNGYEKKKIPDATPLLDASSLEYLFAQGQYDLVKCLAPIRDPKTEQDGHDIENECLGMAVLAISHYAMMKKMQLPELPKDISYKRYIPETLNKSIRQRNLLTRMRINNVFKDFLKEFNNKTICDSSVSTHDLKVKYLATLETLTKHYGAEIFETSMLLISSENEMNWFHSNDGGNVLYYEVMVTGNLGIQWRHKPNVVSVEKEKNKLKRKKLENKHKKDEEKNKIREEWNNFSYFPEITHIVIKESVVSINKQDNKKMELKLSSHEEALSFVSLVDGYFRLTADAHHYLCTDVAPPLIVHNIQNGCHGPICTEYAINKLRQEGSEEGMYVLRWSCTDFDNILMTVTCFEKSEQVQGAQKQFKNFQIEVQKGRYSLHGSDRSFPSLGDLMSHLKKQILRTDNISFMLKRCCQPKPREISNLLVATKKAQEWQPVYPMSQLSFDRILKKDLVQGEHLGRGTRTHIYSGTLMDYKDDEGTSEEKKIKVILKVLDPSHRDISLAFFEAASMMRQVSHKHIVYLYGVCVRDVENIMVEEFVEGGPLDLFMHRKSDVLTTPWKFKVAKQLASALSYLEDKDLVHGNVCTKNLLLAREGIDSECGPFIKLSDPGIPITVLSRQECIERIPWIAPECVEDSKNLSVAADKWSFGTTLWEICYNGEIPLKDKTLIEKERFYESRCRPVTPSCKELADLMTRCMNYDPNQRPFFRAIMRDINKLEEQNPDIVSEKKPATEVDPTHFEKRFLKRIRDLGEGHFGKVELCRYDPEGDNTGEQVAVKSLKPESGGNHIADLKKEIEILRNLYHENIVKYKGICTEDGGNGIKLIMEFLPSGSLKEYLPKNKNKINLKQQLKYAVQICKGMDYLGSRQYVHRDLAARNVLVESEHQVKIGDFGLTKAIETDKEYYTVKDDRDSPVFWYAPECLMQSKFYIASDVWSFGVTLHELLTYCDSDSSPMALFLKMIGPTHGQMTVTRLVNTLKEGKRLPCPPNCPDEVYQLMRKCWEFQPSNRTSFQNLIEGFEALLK
Description: (§11) Example B1: Jak1, 2, 3, Tyk2 Biochemical Assays
(§12) Assays were performed by Reaction Biology Corp, Malvern, Pa. The procedure is briefly described below.
(§13) Base Reaction buffer; 20 mM Hepes (pH 7.5), 10 mM MgCl2, 1 mM EGTA, 0.02% Brij35, 0.02 mg/ml BSA, 0.1 mM Na3VO4, 2 mM DTT, 1% DMSO. Required cofactors are added individually to each kinase reaction
(§14) 1. Prepare indicated substrate in freshly prepared Base Reaction Buffer
(§15) 2. Deliver any required cofactors to the substrate solution above
(§16) 3. Deliver indicated kinase into the substrate solution and gently mix
(§17) 4. Deliver compounds in DMSO into the kinase reaction mixture by Acoustic technology (Echo550; nanoliter range), incubate for 20 minutes at room temperature
(§18) 5. Deliver ^33P-ATP (specific activity 10 μCi/μl) into the reaction mixture to initiate the reaction.
(§19) 6. Incubate kinase reaction for 2 hours at room temperature
(§20) 7. Reactions are spotted onto P81 ion exchange paper
(§21) 8. Detect kinase activity by filter-binding method.

[2] = test system: IL-6 induced STAT3 phosphorylation; test: Human whole blood p-STAT3 assay, IL-6 stimulation; format: cell-based; conditions: for pIC50: 0.25 h, IL-6 100 ng/ml 15 min, pSTAT3 ELISA, read-out: IL-6 (range of IC50, induced STAT3 phosphorylation); for Inhibition of IL-6 induced STAT3 phosphorylation, statement in words: versus TPO induced
Description: as §1, §2
2. IL-6 (R&D systems; Cat #206-IL)
as §3, §4, §5, §6, §7, §8, §9, §10

Jak2 = molecular target: T2, Jak2 (Homo sapiens, UniProt O60674); test: Jak2 biochemical assay (33P-ATP filter-binding, Reaction Biology Corp); conditions: biochemical kinase assay, read-out: Jak2 (range of IC50)
T2 construct: Reaction Biology Corp (performed the assay)
T2 sequence (O60674 whole entry): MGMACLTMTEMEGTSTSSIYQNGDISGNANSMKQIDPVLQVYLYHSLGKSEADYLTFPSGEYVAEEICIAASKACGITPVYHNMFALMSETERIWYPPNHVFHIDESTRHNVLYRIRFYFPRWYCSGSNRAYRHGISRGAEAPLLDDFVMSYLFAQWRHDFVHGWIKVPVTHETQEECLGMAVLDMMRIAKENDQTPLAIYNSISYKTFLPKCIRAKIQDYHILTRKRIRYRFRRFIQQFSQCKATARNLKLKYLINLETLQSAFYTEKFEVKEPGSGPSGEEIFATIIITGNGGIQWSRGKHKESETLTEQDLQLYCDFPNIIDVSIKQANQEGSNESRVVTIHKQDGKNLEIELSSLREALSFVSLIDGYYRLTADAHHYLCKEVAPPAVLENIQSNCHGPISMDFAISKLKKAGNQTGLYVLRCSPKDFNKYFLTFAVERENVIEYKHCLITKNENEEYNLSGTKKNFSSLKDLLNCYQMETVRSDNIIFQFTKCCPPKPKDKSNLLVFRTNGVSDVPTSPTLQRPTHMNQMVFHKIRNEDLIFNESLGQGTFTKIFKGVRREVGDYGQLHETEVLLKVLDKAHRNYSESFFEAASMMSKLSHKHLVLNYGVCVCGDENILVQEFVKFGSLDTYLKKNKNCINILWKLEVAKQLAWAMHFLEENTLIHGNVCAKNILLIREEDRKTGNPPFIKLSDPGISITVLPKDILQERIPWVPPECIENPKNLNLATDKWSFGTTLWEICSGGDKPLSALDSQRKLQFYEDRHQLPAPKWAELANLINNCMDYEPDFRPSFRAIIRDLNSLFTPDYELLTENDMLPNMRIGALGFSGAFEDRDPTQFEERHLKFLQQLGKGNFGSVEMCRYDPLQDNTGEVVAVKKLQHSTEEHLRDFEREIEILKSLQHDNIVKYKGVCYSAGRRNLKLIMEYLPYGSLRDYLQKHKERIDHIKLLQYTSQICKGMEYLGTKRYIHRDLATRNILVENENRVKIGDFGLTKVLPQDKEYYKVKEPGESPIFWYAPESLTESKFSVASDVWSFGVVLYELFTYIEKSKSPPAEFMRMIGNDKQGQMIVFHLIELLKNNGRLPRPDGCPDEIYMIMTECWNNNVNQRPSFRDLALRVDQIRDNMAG
Description: as §11, §12, §13, §14, §15, §16, §17, §18, §19, §20, §21

Row | Compound | pIC50 [1] | pIC50 (Jak1) | pIC50 [2] | pIC50 (Jak2) | Jak1 inhibition, statement in words (Jak1) | Activity in the TPO induced STAT3 phosphorylation assay, statement in words [1] | Inhibition of IL-6 induced STAT3 phosphorylation, statement in words [2]
1 | N#C[C@H]1CC[C@H](n2c(CO)nc3cnc4ccoc4c32)CC1 [Example 2, trans-4-[2-(Hydroxymethyl)furo[3,2-b]imidazo[4,5-d]pyridin-1-yl]cyclohexanecarbonitrile] |  | 6.00 to 7.00 |  |  |  |  | 
2 | N#CC[C@H]1CC[C@H](n2c(CO)nc3cnc4ccoc4c32)CO1 [Example 7, 2-[(2R,5S)-5-[2-(Hydroxymethyl)furo[3,2-b]imidazo[4,5-d]pyridin-1-yl]tetrahydropyran-2-yl] acetonitrile] | < 4.00 | > 8.00 | > 5.30 | 6.00 to 7.00 | potent and selective Jak1 inhibitors |  | selective inhibition of IL-6 induced STAT3 phosphorylation, but not TPO induced STAT3 phosphorylation
3 | C[C@@H](O)c1nc2cnc3ccoc3c2n1C1CCN(C(=O)NCC(F)(F)F)C1 (stereo partly drawn) [Example 5, 3-[2-[(R)-1-Hydroxyethyl]-1H-furo[3,2-b]imidazo[4,5-d]pyridin-1-yl]-N-(2,2,2-trifluoroethyl)pyrrolidine-1-carboxamide] |  | < 6.00 |  | < 6.00 |  |  | 
4 | C[C@@H](O)c1nc2cnc3ccoc3c2n1[C@H]1CC[C@H](CC#N)CC1 [Example 3, 2-[trans-4-[2-[(R)-1-Hydroxyethyl]furo[3,2-b]imidazo[4,5-d]pyridin-1-yl]cyclohexyl] acetonitrile] | < 4.00 | > 8.00 | > 5.30 | 6.00 to 7.00 | potent and selective Jak1 inhibitors |  | selective inhibition of IL-6 induced STAT3 phosphorylation, but not TPO induced STAT3 phosphorylation
5 | C[C@@H](O)c1nc2cnc3ccoc3c2n1[C@H]1CC[C@H](C#N)CC1 [Example 1, trans-4-[2-[(R)-1-Hydroxyethyl]-1H-furo [3,2-b]imidazo [4,5-d]pyridin-1-yl] cyclohexanecarbonitrile] |  | 6.00 to 7.00 |  |  |  |  | 
6 | C[C@@H](O)c1nc2cnc3ccoc3c2n1C1CCN(C(=O)NCC(F)(F)F)CC1 [Example 6, (R)-4-[2-(1-Hydroxyethyl)-1H-furo[3,2-b]imidazo[4,5-d]pyridin-1-yl]-N-(2,2,2-trifluoroethyl)piperidine-1-carboxamide] |  | < 6.00 |  | < 6.00 |  |  | 
7 | C[C@@H](O)c1nc2cnc3ccoc3c2n1[C@H]1CC[C@H](CC#N)OC1 [Example 4, 2-[(2R,5S)-5-[2-[(R)-1-Hydroxyethyl]furo[3,2-b]imidazo[4,5-d]pyridin-1-yl]tetrahydropyran-2-yl] acetonitrile] | < 4.00 | > 8.00 | > 5.30 | 6.00 to 7.00 | potent and selective Jak1 inhibitors |  | selective inhibition of IL-6 induced STAT3 phosphorylation, but not TPO induced STAT3 phosphorylation

Now from value to compound, other results behind:

Row | pIC50 [1] | pIC50 (Jak1) | pIC50 [2] | pIC50 (Jak2) | Jak1 inhibition, statement in words (Jak1) | Compound | Activity in the TPO induced STAT3 phosphorylation assay, statement in words [1] | Inhibition of IL-6 induced STAT3 phosphorylation, statement in words [2]
8 | 4.00 to 4.70 | > 8.00 | > 5.30 | 7.00 to 8.00 |  | Cc1nc2cnc3ccoc3c2n1[C@H]1CC[C@H](CC#N)OC1 [Example 11, 2-[(2R,5S)-5-[2-Methylfuro [3,2-b]imidazo [4,5-d]pyridin-1-yl]tetrahydropyran-2-yl] acetonitrile] | some activity | 
9 |  | 6.00 to 7.00 |  | < 6.00 |  | N#CC[C@@H]1CC[C@H](n2c(CO)nc3cnc4ccoc4c32)CO1 [Example 8, 2-[(2S,5S)-5-[2-(Hydroxymethyl)furo[3,2-b]imidazo[4,5-d]pyridin-1-yl]tetrahydropyran-2-yl] acetonitrile] |  | 
10 |  | > 8.00 |  | 6.00 to 7.00 | potent and selective Jak1 inhibitors | CCc1nc2cnc3ccoc3c2n1[C@H]1CC[C@H](CC#N)OC1 [Example 9, 2-[(2R,5S)-5-[2-Ethylfuro[3,2-b]imidazo[4,5-d]pyridin-1-yl]tetrahydropyran-2-yl] acetonitrile] |  | 
